The results in this text go back to ChEMBL document CHEMBL5236566, “Design and synthesis of novel pipernonaline derivatives as anti-austerity agents against human pancreatic cancer PANC-1 cells” (Bioorg Med Chem, 2022).

Usually IC50 stands for the concentration that gives 50% inhibition. In general, inhibition refers to the percentage by which the read-out fell short of the control.

Data set [1] can be described thus: Selectivity index, ratio of IC50 for cytotoxicity against human PANC-1 cells in nutrient-rich Dulbecco's modified Eagle's medium to PC50 for preferential cytotoxicity against human PANC-1 cells in nutrient-deprived medium. It is filed as toxicity, cell-based.
The subject of data set [2] is PANC-1. The data set is described as follows: Cytotoxicity against human PANC-1 cells assessed as reduction in cell viability incubated for 24 hrs in nutrient-rich Dulbecco's modified Eagle's medium by WST-8 assay. Format: functional, cell-based. Particulars: PANC-1, 24 h. On the technique in general: Tetrazolium assays rely on reduction of a dye to a coloured formazan, in cell work by metabolically active cells.

For data set [3], the system named is PANC-1. The data set can be described thus: Preferential cytotoxicity against human PANC-1 cells assessed as reduction in cell viability incubated for 24 hrs in nutrient-deprived medium by WST-8 assay. Format: functional.
Data set [4] concerns PANC-1. The data set can be described thus: Inhibition of cell migration in human PANC-1 cells assessed as reduction in migration velocity at 20 uM measured every 15 min for 24 hrs in nutrient-rich Dulbecco's modified Eagle's medium by quantitative real-time cell migration assay. Format: functional.
Data set [5] deals with RAC-alpha serine/threonine-protein kinase (Homo sapiens) (UniProt P31749). The data set is described as follows: Inhibition of Akt activation in human PANC-1 cells assessed as effect on mTOR level at 1.25 to 5 uM incubated for 6 hrs in nutrient-deprived medium by Western blot analysis. Particulars: dose 1.25-5 µM. Format: cell-based. In general terms: A western blot detects proteins with antibodies after separation by electrophoresis.
Sequence of RAC-alpha serine/threonine-protein kinase (Homo sapiens) (P31749 whole entry): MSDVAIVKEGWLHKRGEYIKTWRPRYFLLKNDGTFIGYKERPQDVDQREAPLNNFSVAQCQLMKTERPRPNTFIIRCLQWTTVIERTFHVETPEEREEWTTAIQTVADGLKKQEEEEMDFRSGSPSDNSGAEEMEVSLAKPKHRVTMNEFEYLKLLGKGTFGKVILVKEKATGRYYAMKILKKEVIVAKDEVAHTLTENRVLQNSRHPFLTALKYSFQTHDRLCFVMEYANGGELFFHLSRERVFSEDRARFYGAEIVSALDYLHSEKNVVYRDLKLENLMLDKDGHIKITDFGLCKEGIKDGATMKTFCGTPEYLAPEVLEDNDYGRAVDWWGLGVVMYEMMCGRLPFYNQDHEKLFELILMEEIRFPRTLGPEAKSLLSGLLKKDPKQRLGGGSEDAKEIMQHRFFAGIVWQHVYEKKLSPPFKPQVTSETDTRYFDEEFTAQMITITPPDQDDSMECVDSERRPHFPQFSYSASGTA

For data set [6] the target is unchanged. The data set can be described thus: Inhibition of Akt activation in human PANC-1 cells assessed as effect on Atg7 level at 1.25 to 5 uM incubated for 6 hrs in nutrient-deprived medium by Western blot analysis. Format: cell-based. The following applies: dose 1.25-5 µM.
The target is the same in data set [7]. The data set is described as follows: Inhibition of Akt activation in human PANC-1 cells assessed as upregulation of LC3-II level at 1.25 to 5 uM incubated for 6 hrs in nutrient-deprived medium by Western blot analysis. It is filed as cell-based. The following applies: dose 1.25-5 µM.
Data set [8] relates to PANC-1. The data set is described as follows: Inhibition of cell migration in human PANC-1 cells assessed as reduction in cell migration at 20 uM measured at 12 hrs in nutrient-rich Dulbecco's modified Eagle's medium by quantitative real-time cell migration assay relative to control. Format: functional.
Data set [9] addresses RAC-alpha serine/threonine-protein kinase (Homo sapiens) (UniProt P31749). The data set can be described thus: Inhibition of Akt activation in human PANC-1 cells assessed as effect on total Akt level at 1.25 to 5 uM incubated for 6 hrs in nutrient-deprived medium by Western blot analysis. It is filed as cell-based. The following applies: dose 1.25-5 µM.
Data set [10] has the same target. The data set can be described thus: Inhibition of Akt activation in human PANC-1 cells assessed as decrease in Akt phosphorylation at 5 uM incubated for 6 hrs in nutrient-deprived medium by Western blot analysis. Format: cell-based.
The subject of data set [11] is PANC-1. The data set can be described thus: Inhibition of cell migration in human PANC-1 cells assessed as reduction in cell migration at 20 uM measured at 18 hrs in nutrient-rich Dulbecco's modified Eagle's medium by quantitative real-time cell migration assay relative to control. Format: functional.
The subject of data set [12] is PANC-1. The data set is described as follows: Potency index, ratio of pipernonaline PC50 to test compound PC50 for Preferential cytotoxicity against human PANC-1 cells assessed as reduction in cell viability incubated for 24 hrs in nutrient-deprived medium by WST-8 assay. Format: functional.
Data set [13] deals with RAC-alpha serine/threonine-protein kinase (Homo sapiens) (UniProt P31749). The data set is described as follows: Inhibition of Akt activation in human PANC-1 cells assessed as effect on Atg3 level at 1.25 to 5 uM incubated for 6 hrs in nutrient-deprived medium by Western blot analysis. It is filed as cell-based. Particulars: dose 1.25-5 µM.

The structures appear in SMILES notation. Activity calls are given as the source filed them. The calls are words filed in the database; no cut-off is given here.

Take `O=C(CCCCCCCCCc1ccccc1)N1CCCCC1`: the selectivity ratio in data set [1] was > 15.4. The IC50 in data set [2] was > 100 µM. For the same compound, the PC50 in data set [3] was found to be 6.5 µM.

Regarding `O=C(/C=C/CCCCCCc1ccccc1)N1CCCCC1`, the selectivity ratio in data set [1] was > 58.8. For the same compound, the IC50 in [2] was > 100 µM. The PC50 in data set [3] is 1.7 µM.

In the case of `O=C(/C=C/CCCC/C=C/c1ccc2c(c1)OCO2)N1CCCCC1` [PIPERNONALINE], in [1], the selectivity ratio turned out to be 7.6. Also, in [2], the 50% inhibitory concentration (IC50) came out at 54.9 µM. The PC50 in [3] was 7.2 µM.

Turning to `N#Cc1ccc(CCCCCCCCC(=O)N2CCCCC2)cc1`, the selectivity ratio in data set [1] is > 25. Besides, the IC50 in data set [2] was > 100 µM. Also, in data set [3], the PC50 is 4 µM.

On to `O=C(CCCCCCCCc1ccccc1Cl)N1CCCCC1`, for which the selectivity ratio in data set [1] is > 27.8. Moreover, the IC50 in data set [2] was > 100 µM. For the same compound, the PC50 in data set [3] was 3.6 µM.

As to `O=C(CCCCCCCCc1ccc(F)cc1)N1CCCCC1`, the selectivity ratio in [1] amounted to 28.5. The IC50 in [2] was 99.8 µM. Also, the PC50 in data set [3] amounted to 3.5 µM.

In the case of `O=C(CCCCCCCCc1ccccc1)N1CCCCC1`, the Activity in data set [4] turned out to be 10.6 um2/s. Also, the inhibition entry in data set [5], in [6], in [9] and in data set [13] was “inactive” each time. Also, the selectivity ratio in data set [1] was > 90.9. In addition, the inhibition result in data set [7] and in data set [10] was “Active” each time. Also, the inhibition at 20 µM is 50% in data set [8] and 78% in data set [11]. Besides, the 50% inhibitory concentration (IC50) in data set [2] was > 100 µM. Moreover, in [3], the PC50 worked out at 1.08 µM. In [12], the Ratio is reported as 7.

On to `O=C(CCCCCCCCc1ccc(Cl)cc1)N1CCCCC1`, for which the selectivity ratio in [1] is 19.8. Further, in data set [2], the IC50 was determined as 65.5 µM. Besides, the PC50 in [3] was determined as 3.3 µM.

As for `O=C(CCCCCCCCc1cccc(Cl)c1)N1CCCCC1`, in data set [1], the selectivity ratio was > 23.3. Also, the 50% inhibitory concentration (IC50) in [2] was > 100 µM. For the same compound, the PC50 in data set [3] worked out at 4.3 µM.

As to `O=C(/C=C/CCCCCCc1ccccc1)N1CCC(O)CC1`, the selectivity ratio in data set [1] was > 10.6. Further, in [2], the 50% inhibitory concentration (IC50) is > 100 µM. Besides, the PC50 in data set [3] was 9.4 µM.

For `O=C(CCCCCCCCc1ccc(O)cc1)N1CCCCC1`, the selectivity ratio in data set [1] was > 12.8. In [2], the IC50 is > 100 µM. Moreover, the PC50 in [3] is 7.8 µM.

On to `Nc1ccn([C@@H]2O[C@H](CO)[C@@H](O)C2(F)F)c(=O)n1` [GEMCITABINE], for which, in data set [2], the IC50 is > 100 µM. In data set [3], the PC50 is >100 µM.

With `O=C(/C=C/CCCCCCc1ccccc1)N[C@H]1CC[C@H](O)CC1`, the selectivity ratio in [1] was > 1.9. For the same compound, in data set [2], the half-maximal inhibitory concentration (IC50) is > 100 µM. In [3], the PC50 was 52.1 µM.

Consider `O=C(/C=C/CCCCCCc1ccccc1)NCc1ccccc1`, for which the selectivity ratio in data set [1] is > 16.4. The concentration for half-maximal inhibition (IC50) in [2] was > 100 µM. Besides, the PC50 in data set [3] stood at 6.1 µM.

On to `O=C(CCCCCCCCc1ccc2ccccc2c1)N1CCCCC1`, for which the selectivity ratio in [1] came to 14.5. For the same compound, in data set [2], the IC50 was determined as 87 µM. The PC50 in data set [3] turned out to be 6 µM.

In the case of `O=C(/C=C/CCCCCCc1ccccc1)N1CCCC1`, the selectivity ratio in data set [1] is > 24.4. Besides, in data set [2], the IC50 is > 100 µM. In [3], the PC50 was 4.1 µM.

Regarding `O=C(CCCCCCCCC1CCCCC1)N1CCCCC1`, the selectivity ratio in data set [1] is > 8.3. The 50% inhibitory concentration (IC50) in data set [2] was > 100 µM. Besides, the PC50 in data set [3] is 12 µM.

In the case of `O=C(CCCOCCCCc1ccccc1)N1CCCCC1`, the selectivity ratio in [1] was > 3.8. Further, the IC50 in [2] was > 100 µM. The PC50 in data set [3] amounted to 26.6 µM.

With `O=C(CCCCCCCCc1cccc(F)c1)N1CCCCC1`, the selectivity ratio in data set [1] is > 15.2. Also, the half-maximal inhibitory concentration (IC50) in data set [2] is > 100 µM. Also, in data set [3], the PC50 turned out to be 6.6 µM.

Regarding `O=C(CCCCCCCCc1ccc(C(F)(F)F)cc1)N1CCCCC1`, the selectivity ratio in data set [1] is 16.9. Moreover, the IC50 in [2] stood at 54 µM. In addition, the PC50 in data set [3] was 3.2 µM.

For the compound `O=C(CCCCCCCCc1ccccc1F)N1CCCCC1`, the selectivity ratio in [1] turned out to be 21.5. Moreover, the IC50 in data set [2] was determined as 98.9 µM. For the same compound, in data set [3], the PC50 is 4.6 µM.

With `COc1ccc(CCCCCCCCC(=O)N2CCCCC2)cc1`, the selectivity ratio in [1] worked out at 23.5. The 50% inhibitory concentration (IC50) in data set [2] stood at 89.3 µM. For the same compound, the PC50 in [3] is 3.8 µM.

As for `O=C(CCCCCCCCCCc1ccccc1)N1CCCCC1`, in data set [1], the selectivity ratio was > 15.2. Besides, the half-inhibitory concentration (IC50) in [2] was > 100 µM. For the same compound, the PC50 in data set [3] came to 6.6 µM.

In the case of `O=C(CCCCCC/C=C/c1ccccc1)N1CCCCC1`, the selectivity ratio in [1] came out at 7.4. Also, the half-maximal inhibitory concentration (IC50) in [2] is > 100 µM. In addition, in data set [3], the PC50 worked out at 9.6 µM.

On to `O=C(/C=C/CCCCCCc1ccccc1)Nc1ccccc1`, for which the selectivity ratio in data set [1] is > 11.4. The half-maximal inhibitory concentration (IC50) in data set [2] is > 100 µM. Also, in data set [3], the PC50 stood at 8.8 µM.

As to `O=C(/C=C/CCCCCCc1ccccc1)N1CCOCC1`, the selectivity ratio in data set [1] was > 8. Further, the half-inhibitory concentration (IC50) in [2] was > 100 µM. Further, the PC50 in data set [3] is 12.5 µM.

As to `O=C(CCCCCCc1ccccc1)N1CCCCC1`, the selectivity ratio in data set [1] was > 14.1. In data set [2], the concentration for half-maximal inhibition (IC50) was > 100 µM. In data set [3], the PC50 was found to be 7.1 µM.

Consider `O=C(/C=C\CCCCCCc1ccccc1)N1CCCCC1`, for which the selectivity ratio in data set [1] was > 43.5. Also, the half-maximal inhibitory concentration (IC50) in data set [2] was > 100 µM. The PC50 in [3] amounted to 2.3 µM.

As for `S=C(CCCCCCCCc1ccccc1)N1CCCCC1`, the selectivity ratio in data set [1] is > 45.5. The IC50 in data set [2] is > 100 µM. Moreover, the PC50 in [3] was 2.2 µM.

As to `Cc1ccc(CCCCCCCCC(=O)N2CCCCC2)cc1`, the selectivity ratio in data set [1] is > 24.4. Also, in data set [2], the IC50 was > 100 µM. The PC50 in data set [3] was determined as 4.1 µM.

Turning to `O=C(CCCCCCCc1ccccc1)N1CCCCC1`, the selectivity ratio in [1] is > 14.5. The IC50 in [2] is > 100 µM. Also, the PC50 in data set [3] amounted to 6.9 µM.

With `O=C(/C=C/CCCCCCc1ccccc1)N1CCCCCC1`, the selectivity ratio in data set [1] was > 32.3. The IC50 in data set [2] is > 100 µM. Besides, in data set [3], the PC50 is 3.1 µM.

Turning to `O=C(/C=C/CCCCC#Cc1ccccc1)N1CCCCC1`, in [1], the selectivity ratio is > 45.5. In addition, the IC50 in data set [2] is > 100 µM. In addition, the PC50 in [3] was 2.2 µM.
